The EC50 is the concentration at which the effect is half-maximal. As a reminder, the IC50 is the point on the concentration scale where inhibition reaches its midpoint. The term CC50 denotes the concentration giving 50% cytotoxicity. By AC50 is commonly meant the concentration at which the activity in the assay is half-maximal.

This note sets out measurements from ChEMBL document CHEMBL1201862, “PubChem BioAssay data set” (2004).

In assay [1] the test system is BJ. Put plainly: cytotoxicity toward BJ-TERT-LT-ST fibroblasts, dose response, cell-based, RAS-independent, luminescence (AID 1935).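 Also: BJ fibroblasts immortalized with TERT plus LT and ST oncogenes.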 The following applies: Homo sapiens. The class given is functional.
Assay [2] relates to BJ. Put plainly: cells. The class given is functional, cell-based. As to conditions: Homo sapiens.
The subject of assay [3] is BJ. As to the kind of experiment: cytotoxicity toward BJ-TERT fibroblasts, dose response, cell-based, RAS-independent, luminescence (AID 1933). The class given is functional. The following applies: Homo sapiens.
Assay [4] is described as follows: cytotoxicity toward DRD oncogenic fibroblasts, dose response, cell-based, non-viral oncogenic, luminescence (AID 1934). The following applies: Homo sapiens. The format is functional.
Assay [5] in a line: cytotoxicity in HEK-293T cells, dose response, cytotoxicity control for TCR NF-kB inhibitor project, luminescence, T-cell screen hits (AID 489026).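 Also: cells exposed to compound about 14 hours before the viability readout.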 The format is functional, cell-based.
For assay [6], the target named is Intestinal-type alkaline phosphatase (Mus musculus, UniProt P24822). Put plainly: PubChem AID 488875. The class given is functional.
For assay [7], the target named is T1, Intestinal-type alkaline phosphatase (Homo sapiens, UniProt P09923). Put plainly: human IAP activators, dose response, biochemical, luminescent, uHTS hits, set 2 (AID 488817).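 Also: potency of activators that raise enzyme activity.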 The class given is functional.
The target in assay [8] is T1, Intestinal-type alkaline phosphatase. Put plainly: human intestinal alkaline phosphatase activators, dose response, biochemical, luminescence, uHTS hits (AID 463120). The format is functional.
Assay [9] addresses T2, Alkaline phosphatase, tissue-nonspecific isozyme (Homo sapiens, UniProt P05186).
T2 sequence (P05186 whole entry): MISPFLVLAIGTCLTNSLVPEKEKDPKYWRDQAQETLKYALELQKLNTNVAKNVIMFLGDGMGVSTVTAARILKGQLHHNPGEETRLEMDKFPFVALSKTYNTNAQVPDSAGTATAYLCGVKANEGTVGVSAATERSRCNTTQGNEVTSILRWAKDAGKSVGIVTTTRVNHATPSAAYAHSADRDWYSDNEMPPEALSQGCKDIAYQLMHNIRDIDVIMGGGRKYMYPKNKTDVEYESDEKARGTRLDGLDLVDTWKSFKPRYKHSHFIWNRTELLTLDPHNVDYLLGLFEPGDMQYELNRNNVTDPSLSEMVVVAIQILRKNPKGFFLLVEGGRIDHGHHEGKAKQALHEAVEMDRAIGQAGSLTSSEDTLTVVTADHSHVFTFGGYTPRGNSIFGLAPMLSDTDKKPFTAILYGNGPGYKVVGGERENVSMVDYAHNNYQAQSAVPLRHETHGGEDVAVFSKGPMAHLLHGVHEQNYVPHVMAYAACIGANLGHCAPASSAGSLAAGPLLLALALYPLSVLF
As to the kind of experiment: TNAP enzyme activators, dose response, selectivity assay for human IAP activator project, biochemical, TNAP isozyme, human IAP uHTS hits (AID 488886).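 Also: potency of compounds raising TNAP activity as a selectivity check on IAP activators.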 The format is functional.

Another assay deals with SUMO E1/E2 (Homo sapiens, UniProt P63279+Q9UBE0+Q9UBT2). Put plainly: SAR analysis of SUMOylation using HTRF in an in-Vitro dose response assay. [Related pubchem assays (depositor defined):AID2006, AID2011, AID2018, AID2069, AID2658]. The format is functional. A general note: TR-FRET usually uses a lanthanide donor and a delayed reading to cut background.
Assay [10] in a line: Intein inhibitors as potential Tuberculosis drugs, a cytotoxicity screen. [Related pubchem assays (depositor defined):AID2221, AID2223, AID434968, AID435010, AID449749, AID449750, AID489010]. The class given is functional.
A short description of assay [11]: inhibitors of intracellular T. cruzi replication, confirmation, NIH3T3 host cells, beta-gal luminescence (AID 2044).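 Also: intracellular parasites grown in NIH/3T3 mouse fibroblasts as host cells; luminescent beta-galactosidase reporter signal from transgenic T. cruzi replicating inside host cells; inhibitors lower the luminescence signal.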 The class given is functional, cell-based.
Assay [12] can be described thus: cytotoxicity in HEK-293T cells, dose response, cytotoxicity control for BCR NF-kB inhibitor project, luminescence, B-cell screen hits (AID 489021).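 Also: HEK-293T cells carrying an NF-kB luciferase reporter; cells exposed to compound for about 14 hours before viability readout.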 The class given is functional, cell-based.
Another assay concerns the target T3, Protein RecA (Mycobacterium tuberculosis, UniProt P9WHJ3).
T3 sequence (P9WHJ3 whole entry): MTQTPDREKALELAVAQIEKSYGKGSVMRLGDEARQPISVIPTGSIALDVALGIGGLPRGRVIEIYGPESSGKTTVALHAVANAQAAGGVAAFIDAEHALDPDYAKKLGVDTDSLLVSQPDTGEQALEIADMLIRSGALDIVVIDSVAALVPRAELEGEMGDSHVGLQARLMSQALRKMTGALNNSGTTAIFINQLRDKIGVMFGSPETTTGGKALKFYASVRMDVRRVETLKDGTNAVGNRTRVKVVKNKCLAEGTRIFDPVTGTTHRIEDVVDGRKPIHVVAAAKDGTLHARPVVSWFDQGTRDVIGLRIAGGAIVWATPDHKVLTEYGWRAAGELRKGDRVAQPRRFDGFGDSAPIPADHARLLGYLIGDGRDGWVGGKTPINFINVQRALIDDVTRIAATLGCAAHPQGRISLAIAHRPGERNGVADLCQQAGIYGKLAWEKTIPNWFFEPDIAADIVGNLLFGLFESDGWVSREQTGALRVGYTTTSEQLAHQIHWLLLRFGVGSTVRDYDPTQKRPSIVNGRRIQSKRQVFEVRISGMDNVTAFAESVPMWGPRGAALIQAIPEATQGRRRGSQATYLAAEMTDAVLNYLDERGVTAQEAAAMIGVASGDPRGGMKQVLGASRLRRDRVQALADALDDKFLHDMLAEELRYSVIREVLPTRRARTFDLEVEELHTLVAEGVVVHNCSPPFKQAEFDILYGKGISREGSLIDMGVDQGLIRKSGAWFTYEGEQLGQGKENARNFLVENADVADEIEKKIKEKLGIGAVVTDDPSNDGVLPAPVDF
Put plainly: Fluorescence Cell-Free Homogeneous Dose Retest to Identify Inhibitors of RecA-Intein Splicing Activity. [Related pubchem assays (depositor defined):AID2097, AID2223, AID489010, AID492950]. The class given is functional.

A short description of assay [13]: inhibitors of firefly luciferase expression or activity, dose response, H4 neuroglioma cells, luminescence (AID 1990). The format is functional, cell-based.
A short description of assay [14]: cytotoxicity toward NIH3T3 fibroblasts, dose response, counter-screen, cell-based, ATP luminescence, mouse fibroblasts (AID 2010).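 Also: cells exposed to compound for about 90 hours before reading.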 The format is functional. On the technique in general: The purpose of a counterscreen is to sort out artefacts and off-target activity.
The target in assay [15] is T4, Heat shock factor protein 1 (Mus musculus, UniProt P38532).
T4 sequence (P38532 whole entry): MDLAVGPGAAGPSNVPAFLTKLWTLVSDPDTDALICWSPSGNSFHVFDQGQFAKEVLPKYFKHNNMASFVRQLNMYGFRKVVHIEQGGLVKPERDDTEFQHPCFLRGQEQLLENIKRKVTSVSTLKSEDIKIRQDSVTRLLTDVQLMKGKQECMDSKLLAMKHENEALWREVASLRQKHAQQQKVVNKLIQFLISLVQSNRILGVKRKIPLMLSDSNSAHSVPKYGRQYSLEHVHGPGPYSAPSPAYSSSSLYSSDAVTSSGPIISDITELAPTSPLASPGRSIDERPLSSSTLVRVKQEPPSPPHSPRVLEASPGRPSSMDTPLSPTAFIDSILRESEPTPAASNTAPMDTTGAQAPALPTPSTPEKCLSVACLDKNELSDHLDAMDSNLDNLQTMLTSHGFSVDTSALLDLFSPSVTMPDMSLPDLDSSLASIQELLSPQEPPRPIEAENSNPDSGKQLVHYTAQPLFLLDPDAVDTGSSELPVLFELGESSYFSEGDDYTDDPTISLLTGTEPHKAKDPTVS
Put plainly: inhibition of MG132-induced HSE-luciferase signal, confirmation, cell-based, NIH3T3, luminescence, dose retest (AID 2382).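 Also: NIH3T3 fibroblasts with HSF1-driven luciferase reporter stressed by proteasome inhibitor MG132; luminescence from HSF1-driven luciferase expression after 8 hours of MG132 stress.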 The class given is functional.

Another assay concerns HEK293. Put plainly: inhibitors of LMP1-driven NF-kB reporter, dose response, cell-based, HEK293, luciferase, cherry-pick (AID 588343). As to conditions: Homo sapiens. The format is functional.
Assay [16] addresses T5, Replicative DNA helicase DnaB (Mycobacterium tuberculosis, UniProt P9WMR3).
T5 sequence (P9WMR3 whole entry): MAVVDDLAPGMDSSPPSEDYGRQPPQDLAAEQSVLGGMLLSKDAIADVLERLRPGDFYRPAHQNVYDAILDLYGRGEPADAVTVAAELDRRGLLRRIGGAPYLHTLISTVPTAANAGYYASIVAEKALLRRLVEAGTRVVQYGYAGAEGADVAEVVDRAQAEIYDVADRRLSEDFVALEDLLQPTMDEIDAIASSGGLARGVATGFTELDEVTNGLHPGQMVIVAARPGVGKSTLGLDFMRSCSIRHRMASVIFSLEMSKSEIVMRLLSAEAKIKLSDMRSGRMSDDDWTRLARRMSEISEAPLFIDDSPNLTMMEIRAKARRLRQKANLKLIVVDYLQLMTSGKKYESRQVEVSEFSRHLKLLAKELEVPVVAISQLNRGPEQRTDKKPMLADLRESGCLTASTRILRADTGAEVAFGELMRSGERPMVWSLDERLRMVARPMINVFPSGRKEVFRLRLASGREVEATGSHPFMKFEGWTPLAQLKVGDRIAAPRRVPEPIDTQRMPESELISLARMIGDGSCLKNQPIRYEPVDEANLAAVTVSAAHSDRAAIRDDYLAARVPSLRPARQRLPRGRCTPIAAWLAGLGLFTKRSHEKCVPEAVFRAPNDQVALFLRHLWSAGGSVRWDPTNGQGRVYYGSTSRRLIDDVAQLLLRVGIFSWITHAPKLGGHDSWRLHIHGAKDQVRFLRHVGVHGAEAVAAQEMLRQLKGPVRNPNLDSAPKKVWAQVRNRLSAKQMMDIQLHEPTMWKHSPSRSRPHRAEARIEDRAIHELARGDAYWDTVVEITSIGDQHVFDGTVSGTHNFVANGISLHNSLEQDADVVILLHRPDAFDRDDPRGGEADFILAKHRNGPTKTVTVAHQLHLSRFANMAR
Put plainly: DnaB intein splicing inhibitors, dose response, biochemical, cell-free fluorescence (AID 449749). The class given is functional.

Assay [17] in a line: inhibitors of SNCA 5'UTR-driven reporter translation, confirmation, H4 neuroglioma cells, luminescence (AID 1988). The class given is functional, cell-based.
A short description of assay [18]: NIH-3T3 fibroblast cytotoxicity, dose response, cytotoxicity control, cell-based, fluorescence, Alamar Blue, secondary assay (AID 2327).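 Also: NIH-3T3 mouse fibroblasts cultured with fluconazole at 8 µg/mL.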 The class given is functional.
Assay [19] in a line: Luminescence Cell-Based Dose Response HTS to Identify Inhibitors of 5'UTR Stem-Loop Driven Prion Protein mRNA Translation in H4 Neuroglioblastoma Cells. [Related pubchem assays: 1827 (Project Summary), 1813 (Primary HTS)]. The class given is functional.

Activity calls are given as the source filed them. Rule as the data show it, for most assays here: actives have a measured EC50 and inactives only a lower limit.
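For CC50 in this document: cells exposed to compound for 72 hours before luminescence readout.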

T1 sequence (P09923 whole entry): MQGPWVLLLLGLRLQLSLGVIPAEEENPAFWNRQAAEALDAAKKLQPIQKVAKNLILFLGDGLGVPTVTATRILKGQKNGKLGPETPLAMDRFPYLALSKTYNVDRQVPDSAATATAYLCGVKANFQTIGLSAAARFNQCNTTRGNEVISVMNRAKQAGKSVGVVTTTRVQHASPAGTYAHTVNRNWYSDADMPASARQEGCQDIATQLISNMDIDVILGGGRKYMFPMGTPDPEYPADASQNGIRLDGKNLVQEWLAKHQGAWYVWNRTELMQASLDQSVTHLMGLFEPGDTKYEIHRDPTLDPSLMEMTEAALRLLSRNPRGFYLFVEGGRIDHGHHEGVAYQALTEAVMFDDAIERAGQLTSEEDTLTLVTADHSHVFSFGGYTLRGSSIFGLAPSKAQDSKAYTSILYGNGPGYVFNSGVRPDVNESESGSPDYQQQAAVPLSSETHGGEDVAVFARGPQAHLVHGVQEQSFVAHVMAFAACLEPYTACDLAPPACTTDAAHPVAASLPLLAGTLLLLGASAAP
Chain of Intestinal-type alkaline phosphatase (Mus musculus, UniProt P24822) (P24822 whole entry): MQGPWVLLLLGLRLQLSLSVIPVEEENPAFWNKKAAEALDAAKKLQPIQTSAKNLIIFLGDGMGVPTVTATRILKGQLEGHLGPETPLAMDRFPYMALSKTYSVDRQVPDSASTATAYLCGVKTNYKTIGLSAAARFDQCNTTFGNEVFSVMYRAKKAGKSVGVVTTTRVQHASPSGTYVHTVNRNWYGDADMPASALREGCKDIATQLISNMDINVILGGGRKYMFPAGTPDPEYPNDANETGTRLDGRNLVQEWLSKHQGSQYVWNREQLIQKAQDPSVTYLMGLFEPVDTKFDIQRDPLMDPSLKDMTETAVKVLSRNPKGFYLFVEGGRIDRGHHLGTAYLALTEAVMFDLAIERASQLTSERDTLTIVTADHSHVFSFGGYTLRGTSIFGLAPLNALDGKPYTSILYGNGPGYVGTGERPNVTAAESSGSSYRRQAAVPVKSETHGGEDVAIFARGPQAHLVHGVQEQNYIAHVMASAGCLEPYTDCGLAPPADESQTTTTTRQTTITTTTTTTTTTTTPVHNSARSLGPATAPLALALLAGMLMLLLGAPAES
Chain of SUMO E1/E2 (Q9UBE0 whole entry): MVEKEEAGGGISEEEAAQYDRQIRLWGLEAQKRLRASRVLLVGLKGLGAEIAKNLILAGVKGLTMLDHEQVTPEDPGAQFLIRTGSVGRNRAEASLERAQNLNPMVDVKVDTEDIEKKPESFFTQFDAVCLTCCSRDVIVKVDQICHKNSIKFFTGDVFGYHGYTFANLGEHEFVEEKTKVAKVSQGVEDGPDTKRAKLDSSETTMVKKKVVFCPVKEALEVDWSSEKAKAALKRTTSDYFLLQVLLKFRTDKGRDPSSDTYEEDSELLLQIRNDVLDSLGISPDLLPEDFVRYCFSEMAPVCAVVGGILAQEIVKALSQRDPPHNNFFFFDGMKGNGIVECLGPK
Chain of SUMO E1/E2 (Q9UBT2 whole entry): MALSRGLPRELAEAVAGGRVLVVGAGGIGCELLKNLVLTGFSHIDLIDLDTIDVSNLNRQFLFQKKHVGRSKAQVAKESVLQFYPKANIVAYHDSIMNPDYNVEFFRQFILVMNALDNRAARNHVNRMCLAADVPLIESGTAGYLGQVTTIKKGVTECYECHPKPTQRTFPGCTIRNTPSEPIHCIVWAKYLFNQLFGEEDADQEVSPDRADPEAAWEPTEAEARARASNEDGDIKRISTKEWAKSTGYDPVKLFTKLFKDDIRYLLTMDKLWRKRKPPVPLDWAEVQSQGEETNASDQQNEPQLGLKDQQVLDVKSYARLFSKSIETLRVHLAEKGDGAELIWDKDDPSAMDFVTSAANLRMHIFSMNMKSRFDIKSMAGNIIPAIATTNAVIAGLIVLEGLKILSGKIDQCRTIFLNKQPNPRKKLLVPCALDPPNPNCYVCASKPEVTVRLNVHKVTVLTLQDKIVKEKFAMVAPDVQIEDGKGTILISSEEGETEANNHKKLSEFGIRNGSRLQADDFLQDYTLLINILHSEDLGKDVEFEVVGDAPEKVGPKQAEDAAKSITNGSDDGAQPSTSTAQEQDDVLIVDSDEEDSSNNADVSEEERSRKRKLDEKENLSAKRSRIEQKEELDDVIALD
Chain of SUMO E1/E2 (P63279 whole entry): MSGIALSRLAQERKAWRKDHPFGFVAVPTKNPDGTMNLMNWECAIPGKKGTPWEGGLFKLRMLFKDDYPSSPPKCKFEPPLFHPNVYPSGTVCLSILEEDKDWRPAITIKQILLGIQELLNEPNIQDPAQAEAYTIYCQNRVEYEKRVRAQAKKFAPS

For `O=C(Cc1ccc(-c2ccccc2)cc1)NCc1ccccc1`, the EC50 was 279 nM (inconclusive) with BJ [1], 13.6 µM (inconclusive) with BJ [2], 385 nM (active) in the assay on BJ [3] and 489 nM (active) in [4]. Also, the IC50 in assay [5] is > 80 µM (inactive).

With `Cc1ccccc1CN1CCC(n2nccc2NC(=O)CCCc2ccccc2)CC1`, the EC50 is 61 µM (active) in assay [6], 64.1 µM (active) in [7], 70.7 µM (active) in [8] and 63.4 µM (active) in assay [9].

Consider `COC(=O)c1ccc2c(c1)C1C=CCC1C(c1ccc(C(=O)O)cc1)N2` (configuration not stated), for which the IC50 at SUMO E1/E2 was > 100 µM (inactive).

For `O=C(CCl)N(c1ccc(Cl)cc1)c1c[nH]c2ccccc12`, in [10], the CC50 is 860 nM (active). Besides, the EC50 was 412 nM (active) in assay [11]; 195 nM (active) at Protein RecA; 13.2 µM (active) in [13]; < 6 µM (inconclusive) in assay [14]; 2.72 µM (active) in [15]; 8.46 µM (active) in [17]. Moreover, the results for the half-maximal effective concentration (EC50) in [18] and in assay [19] were 4.07 µM (inconclusive) and 15.5 µM (active), respectively. Also, in [12], the IC50 was 15 µM (active). Further, the concentration at half-maximal activity (AC50) in the assay on HEK293 is 12.5 µM (active); in assay [16] it was 2.46 µM (active).
